Laboratory results from ChEMBL document CHEMBL5727031, “Metabotropic glutamate receptor negative allosteric modulators (NAMS) and uses thereof” (2018).

Legend:
[1] = (§1) In Vitro GIRK Thallium Flux Assay (2.5 minutes): Human Embryonic Kidney (HEK-293) cell lines co-expressing rat mGlu receptors 2, 3, 4, 6, 7 or 8 and G protein-coupled inwardly-rectifying potassium (GIRK) channels_ENREF_54 were grown in Growth Media containing 45% DMEM, 45% F-12, 10% FBS, 20 mM HEPES, 2 mM L-glutamine, antibiotic/antimycotic, non-essential amino acids, 700 μg/ml G418, and 0.6 μg/ml puromycin at 37° C. in the presence of 5% CO2. All cell culture reagents were purchased from Invitrogen Corp. (Carlsbad, Calif.) unless otherwise noted. Compound activity at the group II (mGlu2 and mGlu3) mGlus was assessed using thallium flux through GIRK channels. Briefly, cells were plated into 384-well, black-walled, clear-bottomed poly-D-lysine-coated plates at a density of 15,000 cells/20 μL/well in DMEM containing 10% dialyzed FBS, 20 mM HEPES, and 100 units/mL penicillin/streptomycin (assay media). Plated cells were incubated overnight at 37° C. in the presence of 5% CO2. The following day, the medium was exchanged from the cells to assay buffer [Hanks' balanced salt solution (Invitrogen) containing 20 mM HEPES, pH 7.3] using an ELX405 microplate washer (BioTek), leaving 20 μL/well, followed by the addition of 20 μL/well FluoZin2-AM (330 nM final concentration) indicator dye (Invitrogen; prepared as a stock in DMSO and mixed in a 1:1 ratio with Pluronic acid F-127) in assay buffer. Cells were incubated for 1 h at room temperature, and the dye exchanged to assay buffer using an ELX405, leaving 20 μL/well. Test compounds were diluted to 2 times their final desired concentration in assay buffer (0.3% DMSO final concentration). Agonists were diluted in thallium buffer [125 mM sodium bicarbonate (added fresh the morning of the experiment), 1 mM magnesium sulfate, 1.8 mM calcium sulfate, 5 mM glucose, 12 mM thallium sulfate, and 10 mM HEPES, pH 7.3] at 5 times the final concentration to be assayed. Cell plates and compound plates were loaded onto a kinetic imaging plate reader (FDSS 6000 or 7000; Hamamatsu Corporation, Bridgewater, N.J.). Appropriate baseline readings were taken (10 images at 1 Hz; excitation, 470±20 nm; emission, 540±30 nm) and test compounds were added in a 20 μL volume and incubated for either 2.5 min or 60 min as indicated before the addition of 10 μL of thallium buffer with or without agonist. After the addition of agonist, data were collected for approximately an additional 2.5 min. Data were analyzed using Excel (Microsoft Corp, Redmond, Wash.). The slope of the fluorescence increase beginning 5 s after thallium/agonist addition and ending 15 s after thallium/agonist addition was calculated, corrected to vehicle and maximal agonist control slope values, and plotted in using either XLfit (ID Business Solutions Ltd) or Prism software (GraphPad Software, San Diego, Calif.) to generate concentration-response curves. Potencies were calculated from fits using a four-point parameter logistic equation. For concentration-response curve experiments, compounds were serially diluted 1:3 into 10 point concentration response curves and were transferred to daughter plates using an Echo acoustic plate reformatter (Labcyte, Sunnyvale, Calif.). Test compounds were applied and followed by EC80 concentrations of glutamate.; details: HEK293, 2.5 min
[2] = as §1, with “Assay (60” for “Assay (2.5”, “additional 60” for “additional 2.5”; details: HEK293, 1 h
[3] = as above; details: HEK293, 1 h; remark: listed apart in the source
[4] = as §1; details: HEK293, 2.5 min; remark: listed apart in the source

| SMILES | EC50 [1] | EC50 [2] | EC50 [3] | EC50 [4] |
| --- | --- | --- | --- | --- |
| Cc1cc(NC(=O)OC(C)(C)C)c(NC(=O)CC(=O)c2cccc(OCc3ccccc3)c2)cc1C(F)(F)F | > 10 µM | 0.74 µM | 2.36 µM | 2.93 µM |
| C(=C\c1nc(-c2cccc(-c3ccccc3)c2)cs1)/c1ccccc1 | 3.47 µM | > 10 µM | > 10 µM | > 10 µM |
| c1ccc(-c2nc(-c3cccc(-c4ccco4)c3)nn2-c2ccccc2)cc1 | > 10 µM | > 30 µM | > 30 µM | 0.21 µM |
| c1ccc(Cn2nc(-c3cccc(-c4ccccc4)c3)nc2-c2ccccc2)cc1 | > 10 µM | 1.4 µM | 2.71 µM | 3.9 µM |
| c1ccc(-c2cccc(-c3nsc(-c4ccccc4)n3)c2)cc1 | 0.32 µM | 0.45 µM | 0.05 µM | 2.28 µM |
| Cc1cc(NC(=O)OC(C)(C)C)c(NC(=O)CC(=O)c2cccc(Oc3ccccc3)c2)cc1C(F)(F)F | 2.21 µM | 1.93 µM | 1.19 µM | 2.62 µM |
| c1ccc(-c2cccc(-c3coc(-c4ccccc4)n3)c2)cc1 | > 10 µM | > 30 µM | > 10 µM | > 30 µM |
| Fc1ccc(-c2cccc(-c3nsc(-c4ccoc4)n3)c2)cc1 | 3.63 µM | > 10 µM | 3.71 µM | > 10 µM |
| FC(F)(F)c1ccc(-c2nc(-c3cccc(-c4ccccc4)c3)nn2-c2ccccc2)cn1 | > 10 µM | 0.85 µM | > 10 µM | 5.56 µM |
| Fc1ccc(-c2cccc(-c3csc(-c4ccccc4)c3)c2)cc1 | > 10 µM | > 10 µM | > 10 µM | > 10 µM |
| Fc1ccccc1-c1cccc(-c2nc(-c3ccccc3)n(-c3ccccc3)n2)c1 | > 10 µM | 2.29 µM | > 10 µM | 4.45 µM |
| c1ccc(-c2cccc(-c3nc(-c4ccoc4)n(-c4ccccc4)n3)c2)cc1 | > 10 µM | 2.63 µM | 3.78 µM | > 10 µM |
| CC(C)n1nc(-c2cccc(-c3ccccc3)c2)nc1-c1ccccc1 | > 10 µM | > 10 µM | > 30 µM | > 10 µM |
| Fc1cccc(-c2cccc(-c3nsc(-c4ccoc4)n3)c2)c1 | 0.17 µM | 1.23 µM | 0.11 µM | 3.43 µM |
| Clc1ccc(-c2nc(-c3cccc(-c4ccccc4)c3)cs2)cn1 | 3.83 µM | 0.83 µM | 0.27 µM | > 10 µM |
| c1ccc(-c2cccc(-c3cc(-c4ccccc4)on3)c2)cc1 | > 10 µM | > 10 µM | > 30 µM | > 10 µM |
| COc1ccc(-n2nc(-c3cccc(-c4ccccc4)c3)nc2-c2ccccc2)cc1 | > 10 µM | 0.46 µM | 6.58 µM | 2.96 µM |
| Cn1nc(-c2cccc(-c3ccccc3)c2)nc1-c1ccccc1 | 0.59 µM | > 10 µM | 1.48 µM | > 10 µM |
| Fc1cccc(-c2cccc(-c3nc(-c4ccccc4)n(-c4ccccc4)n3)c2)c1 | > 10 µM | 1.51 µM | > 10 µM | 3.11 µM |
| c1ccc(-c2cccc(-c3nc(-c4cccs4)n(-c4ccccc4)n3)c2)cc1 | > 10 µM | 1.68 µM | 3.67 µM | 4.29 µM |
| c1ccc(-c2cccc(-c3n[nH]c(-c4ccccc4)n3)c2)cc1 | > 10 µM | > 30 µM | > 30 µM | > 30 µM |
| Fc1ccccc1-c1cccc(-c2nsc(-c3ccccc3)n2)c1 | 0.89 µM | > 10 µM | 0.11 µM | > 10 µM |
| c1ccc(-c2cccc(-c3noc(-c4ccccc4)n3)c2)cc1 | 1.33 µM | > 10 µM | 0.79 µM | > 10 µM |
| Fc1ccc(-c2cccc(-c3nsc(-c4ccccc4)n3)c2)cc1 | 0.1 µM | 0.46 µM | 0.05 µM | 0.52 µM |
| Fc1cccc(-n2nc(-c3cccc(-c4ccccc4)c3)nc2-c2ccccc2)c1 | 3.22 µM | 1.16 µM | > 10 µM | > 10 µM |
